Like-named read-outs stand apart in the source and are kept apart here.
How the values were obtained:
[1] = design: method as in Investigator's Brochure, 2004; details: rats, 100 mg/kg/day, both formulations; ref Investigator's Brochure, 2004; cited from earlier work
[2] = design: method as in protocol pharmaceutical information; details: ref protocol pharmaceutical information, cited from earlier work
[3] = design: method as in Investigator's Brochure, 2004; details: mice, single IP injection of 20 mg/kg, ref Investigator's Brochure, 2004, cited from earlier work
[4] = system: CYP1A2; design: method as in protocol pharmaceutical information; details: ref protocol pharmaceutical information; cited from earlier work
[5] = system: CYP2C9; design: method as in protocol pharmaceutical information; details: ref protocol pharmaceutical information; cited from earlier work
[6] = design: method as in Investigator's Brochure, 2004; details: dogs, ref Investigator's Brochure, 2004, cited from earlier work
[7] = cited from earlier work
[8] = system: CYP2C8; design: method as in protocol pharmaceutical information; details: ref protocol pharmaceutical information; cited from earlier work
[9] = molecular target: T1, UGT1A3 (Homo sapiens, UniProt P35503); assay: UGT supersome screening; assay type: in vitro ADME; details: UGT1A3 supersomes, 10 µM belinostat, 37°C
T1 construct: purchased BD Gentest
T1 sequence (P35503 29-534): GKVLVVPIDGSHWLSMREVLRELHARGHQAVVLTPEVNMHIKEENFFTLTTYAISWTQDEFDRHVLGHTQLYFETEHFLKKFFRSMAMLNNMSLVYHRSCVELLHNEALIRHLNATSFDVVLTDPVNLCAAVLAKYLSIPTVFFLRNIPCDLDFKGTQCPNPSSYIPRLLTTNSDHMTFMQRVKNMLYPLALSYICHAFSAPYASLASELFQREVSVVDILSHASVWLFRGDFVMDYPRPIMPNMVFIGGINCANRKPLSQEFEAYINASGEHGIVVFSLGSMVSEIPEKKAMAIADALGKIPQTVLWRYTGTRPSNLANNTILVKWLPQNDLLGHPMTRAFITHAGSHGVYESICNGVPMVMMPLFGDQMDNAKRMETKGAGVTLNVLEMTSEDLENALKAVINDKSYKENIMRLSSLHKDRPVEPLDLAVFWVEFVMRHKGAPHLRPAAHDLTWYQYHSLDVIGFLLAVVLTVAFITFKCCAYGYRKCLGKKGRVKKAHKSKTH
Procedure: (§1) A typical incubation consisted of 50 µg of UGT, 2 mM UDPGA (UGT Reaction Solution A), 50 mM Tris-HCl, 8 mM MgCl2 and 0.025 mg/ml alamethicin (UGT Reaction Solution B) in a final incubation volume of 100 µL. Before the addition of substrate, the incubation mixture was prewarmed and equilibrated for 5 min at 37°C. […] The incubation mixture was vortexed and centrifuged (10,060 g) at 4°C for 10 min, and the supernatants were analyzed. Insect microsomes without UGT cDNA served as negative control. […] Incubations were performed as described above. Three independent experiments were performed for kinetic analysis.

[10] = molecular target: T2, UGT2B7 (Homo sapiens, UniProt P16662); assay: UGT supersome screening; assay type: in vitro ADME; details: UGT2B7 supersomes, 10 µM belinostat, 37°C
T2 construct: purchased BD Gentest
T2 sequence (P16662 24-529): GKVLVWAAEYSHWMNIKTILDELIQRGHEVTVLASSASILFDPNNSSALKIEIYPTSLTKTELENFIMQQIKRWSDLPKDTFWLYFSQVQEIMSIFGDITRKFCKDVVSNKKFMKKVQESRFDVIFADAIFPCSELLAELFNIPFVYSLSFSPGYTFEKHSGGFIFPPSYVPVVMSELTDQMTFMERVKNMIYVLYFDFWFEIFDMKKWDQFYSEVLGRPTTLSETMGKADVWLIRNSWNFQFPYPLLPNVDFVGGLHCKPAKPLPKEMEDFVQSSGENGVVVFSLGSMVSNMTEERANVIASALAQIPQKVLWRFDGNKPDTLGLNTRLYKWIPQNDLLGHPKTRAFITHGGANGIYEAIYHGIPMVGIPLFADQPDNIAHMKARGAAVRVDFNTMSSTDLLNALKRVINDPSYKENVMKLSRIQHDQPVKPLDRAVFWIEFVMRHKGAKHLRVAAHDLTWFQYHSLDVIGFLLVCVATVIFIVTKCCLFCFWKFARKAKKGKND
Procedure: as §1

[11] = molecular target: T3, UGT1A8 (Homo sapiens, UniProt Q9HAW9); assay: UGT supersome screening; assay type: in vitro ADME; details: UGT1A8 supersomes, 10 µM belinostat, 37°C
T3 construct: purchased BD Gentest
T3 sequence (Q9HAW9 26-530): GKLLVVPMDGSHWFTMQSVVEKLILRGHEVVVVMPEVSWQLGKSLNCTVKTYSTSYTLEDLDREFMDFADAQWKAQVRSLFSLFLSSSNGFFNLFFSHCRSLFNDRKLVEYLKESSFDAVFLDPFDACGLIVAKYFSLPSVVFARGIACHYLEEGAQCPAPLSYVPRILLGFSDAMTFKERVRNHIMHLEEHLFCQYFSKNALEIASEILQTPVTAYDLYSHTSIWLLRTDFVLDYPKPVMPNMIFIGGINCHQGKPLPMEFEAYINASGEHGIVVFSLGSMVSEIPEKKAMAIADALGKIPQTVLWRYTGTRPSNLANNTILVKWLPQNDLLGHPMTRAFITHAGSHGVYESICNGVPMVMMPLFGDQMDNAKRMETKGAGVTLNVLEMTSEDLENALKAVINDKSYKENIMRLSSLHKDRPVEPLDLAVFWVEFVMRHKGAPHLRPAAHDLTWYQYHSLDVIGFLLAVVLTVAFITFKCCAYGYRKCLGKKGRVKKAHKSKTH
Procedure: as §1

[12] = molecular target: T4, UGT2B4 (Homo sapiens, UniProt P06133); assay: UGT supersome screening; assay type: in vitro ADME; details: UGT2B4 supersomes, 10 µM belinostat, 37°C
T4 construct: purchased BD Gentest
Procedure: as §1

[13] = molecular target: T5, UGT1A7 (Homo sapiens, UniProt Q9HAW7); assay: UGT supersome screening; assay type: in vitro ADME; details: UGT1A7 supersomes, 10 µM belinostat, 37°C
T5 construct: purchased BD Gentest
T5 sequence (Q9HAW7 26-530): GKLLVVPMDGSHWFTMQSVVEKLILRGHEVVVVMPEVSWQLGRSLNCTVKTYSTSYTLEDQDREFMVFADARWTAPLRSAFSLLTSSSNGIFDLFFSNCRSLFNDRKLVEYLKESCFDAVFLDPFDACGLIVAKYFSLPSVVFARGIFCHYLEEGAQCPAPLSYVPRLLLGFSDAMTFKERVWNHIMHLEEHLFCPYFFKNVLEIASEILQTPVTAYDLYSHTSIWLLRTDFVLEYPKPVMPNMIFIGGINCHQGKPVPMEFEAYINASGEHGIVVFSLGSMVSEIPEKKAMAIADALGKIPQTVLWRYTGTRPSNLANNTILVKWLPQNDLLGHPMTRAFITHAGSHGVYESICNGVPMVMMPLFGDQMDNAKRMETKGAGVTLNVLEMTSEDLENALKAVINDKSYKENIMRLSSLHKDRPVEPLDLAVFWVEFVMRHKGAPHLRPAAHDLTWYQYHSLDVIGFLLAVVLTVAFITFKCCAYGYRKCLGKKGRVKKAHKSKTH
Procedure: (§2) Before the addition of substrate, the incubation mixture was prewarmed and equilibrated for 5 min at 37°C. […] The incubation mixture was vortexed and centrifuged (10,060 g) at 4°C for 10 min, and the supernatants were analyzed. Insect microsomes without UGT cDNA served as negative control. […] Incubations were performed as described above. Three independent experiments were performed for kinetic analysis.

[14] = molecular target: T6, UGT1A4 (Homo sapiens, UniProt P22310); assay: UGT supersome screening; assay type: in vitro ADME; details: UGT1A4 supersomes, 10 µM belinostat, 37°C
T6 construct: purchased BD Gentest
T6 sequence (P22310 29-534): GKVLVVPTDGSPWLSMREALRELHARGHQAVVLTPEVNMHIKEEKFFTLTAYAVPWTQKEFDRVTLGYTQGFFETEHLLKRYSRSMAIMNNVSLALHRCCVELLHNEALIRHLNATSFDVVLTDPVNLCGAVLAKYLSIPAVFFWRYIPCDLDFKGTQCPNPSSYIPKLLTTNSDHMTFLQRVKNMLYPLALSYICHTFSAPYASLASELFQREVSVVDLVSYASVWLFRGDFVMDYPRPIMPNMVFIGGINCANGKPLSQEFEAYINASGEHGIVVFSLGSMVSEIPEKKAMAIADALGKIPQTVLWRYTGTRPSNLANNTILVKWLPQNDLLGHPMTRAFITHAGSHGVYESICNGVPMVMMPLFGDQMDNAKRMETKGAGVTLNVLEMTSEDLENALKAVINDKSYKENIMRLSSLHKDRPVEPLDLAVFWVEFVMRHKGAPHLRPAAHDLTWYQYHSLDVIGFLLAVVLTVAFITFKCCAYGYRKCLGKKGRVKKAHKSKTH
Procedure: as §2

[15] = molecular target: T7, UGT2B17 (Homo sapiens, UniProt O75795); assay: UGT supersome screening; assay type: in vitro ADME; details: UGT2B17 supersomes, 10 µM belinostat, 37°C
T7 construct: purchased BD Gentest
Procedure: as §2

[16] = molecular target: T8, UGT2B15 (Homo sapiens, UniProt P54855); assay: UGT supersome screening; assay type: in vitro ADME; details: UGT2B15 supersomes, 10 µM belinostat, 37°C
T8 construct: purchased BD Gentest
T8 sequence (P54855 24-530): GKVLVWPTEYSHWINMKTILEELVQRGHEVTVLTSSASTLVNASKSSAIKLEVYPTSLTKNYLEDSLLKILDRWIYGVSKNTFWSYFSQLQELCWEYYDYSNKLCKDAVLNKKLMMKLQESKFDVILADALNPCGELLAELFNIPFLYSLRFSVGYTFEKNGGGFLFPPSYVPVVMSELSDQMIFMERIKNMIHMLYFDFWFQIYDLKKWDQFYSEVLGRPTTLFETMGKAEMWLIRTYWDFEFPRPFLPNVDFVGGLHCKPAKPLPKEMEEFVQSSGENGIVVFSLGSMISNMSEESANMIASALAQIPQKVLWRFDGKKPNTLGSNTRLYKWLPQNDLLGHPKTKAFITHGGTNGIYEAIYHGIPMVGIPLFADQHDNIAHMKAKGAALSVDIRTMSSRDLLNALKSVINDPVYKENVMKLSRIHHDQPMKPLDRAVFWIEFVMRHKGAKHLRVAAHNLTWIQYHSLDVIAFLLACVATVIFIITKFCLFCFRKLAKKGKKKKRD
Procedure: as §2

[17] = molecular target: T9, UGT1A9 (Homo sapiens, UniProt O60656); assay: UGT supersome screening; assay type: in vitro ADME; details: UGT1A9 supersomes, 10 µM belinostat, 37°C
T9 construct: purchased BD Gentest
T9 sequence (O60656 26-530): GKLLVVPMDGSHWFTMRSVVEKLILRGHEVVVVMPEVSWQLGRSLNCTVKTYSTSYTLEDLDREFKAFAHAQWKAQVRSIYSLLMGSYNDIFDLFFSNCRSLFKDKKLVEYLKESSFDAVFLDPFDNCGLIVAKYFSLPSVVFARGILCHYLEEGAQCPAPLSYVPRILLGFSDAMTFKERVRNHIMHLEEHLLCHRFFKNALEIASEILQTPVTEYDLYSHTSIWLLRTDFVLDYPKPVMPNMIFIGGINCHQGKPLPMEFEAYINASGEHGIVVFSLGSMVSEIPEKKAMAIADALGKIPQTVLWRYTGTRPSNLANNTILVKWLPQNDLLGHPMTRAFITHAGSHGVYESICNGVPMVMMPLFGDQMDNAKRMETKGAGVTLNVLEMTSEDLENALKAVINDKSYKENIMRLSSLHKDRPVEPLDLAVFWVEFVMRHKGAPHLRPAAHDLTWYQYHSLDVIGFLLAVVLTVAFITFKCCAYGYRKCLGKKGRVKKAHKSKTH
Procedure: as §2

[18] = molecular target: T10, UGT1A6 (Homo sapiens, UniProt P19224); assay: UGT supersome screening; assay type: in vitro ADME; details: UGT1A6 supersomes, 10 µM belinostat, 37°C
T10 construct: purchased BD Gentest
T10 sequence (P19224 27-532): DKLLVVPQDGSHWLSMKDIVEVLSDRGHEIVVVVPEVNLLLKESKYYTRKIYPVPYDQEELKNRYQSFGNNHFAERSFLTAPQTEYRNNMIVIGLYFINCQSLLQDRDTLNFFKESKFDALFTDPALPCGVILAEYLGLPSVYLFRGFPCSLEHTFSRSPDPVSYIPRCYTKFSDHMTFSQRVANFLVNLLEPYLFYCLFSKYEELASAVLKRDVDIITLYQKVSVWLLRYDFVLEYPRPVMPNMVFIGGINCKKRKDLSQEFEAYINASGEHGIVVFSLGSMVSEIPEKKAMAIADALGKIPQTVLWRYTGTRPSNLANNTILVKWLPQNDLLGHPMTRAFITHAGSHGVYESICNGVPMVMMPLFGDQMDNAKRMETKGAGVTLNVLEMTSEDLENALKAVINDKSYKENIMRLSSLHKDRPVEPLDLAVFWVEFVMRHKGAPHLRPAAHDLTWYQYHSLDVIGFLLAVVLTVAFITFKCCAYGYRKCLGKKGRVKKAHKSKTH
Procedure: as §2

[19] = molecular target: T11, UGT1A10 (Homo sapiens, UniProt Q9HAW8); assay: UGT supersome screening; assay type: in vitro ADME; details: UGT1A10 supersomes, 10 µM belinostat, 37°C
T11 construct: purchased BD Gentest
T11 sequence (Q9HAW8 26-530): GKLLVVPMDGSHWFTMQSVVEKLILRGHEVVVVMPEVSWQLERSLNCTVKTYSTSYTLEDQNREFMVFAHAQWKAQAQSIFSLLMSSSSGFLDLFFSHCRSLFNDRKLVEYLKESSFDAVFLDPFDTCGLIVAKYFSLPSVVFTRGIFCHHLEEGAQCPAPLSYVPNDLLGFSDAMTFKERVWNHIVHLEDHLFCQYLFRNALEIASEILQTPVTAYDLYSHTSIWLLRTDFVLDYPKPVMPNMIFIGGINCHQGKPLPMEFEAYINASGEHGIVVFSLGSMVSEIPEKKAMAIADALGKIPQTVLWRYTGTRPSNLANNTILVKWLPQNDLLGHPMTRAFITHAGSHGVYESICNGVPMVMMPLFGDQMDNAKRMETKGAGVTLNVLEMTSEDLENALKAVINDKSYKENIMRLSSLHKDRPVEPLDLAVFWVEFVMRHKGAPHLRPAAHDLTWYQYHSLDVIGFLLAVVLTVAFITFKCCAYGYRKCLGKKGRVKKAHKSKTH
Procedure: as §2

[20] = system: HepG2 cells; assay: MTS growth inhibition assay; assay type: cell-based, human; details: Homo sapiens, HepG2, 72 h
Procedure: To the other plate, equal molar concentrations of belinostat-G were added similarly. After 72 h, cells were stained with Gentian Violet paint (0.5% w/v; B.P.) and assessed for viability. […] After incubating 24 h, 100-µL drug solution or blank medium was added into each well of 96-well plates. 72 h later, 20 µL of MTS/PES was added into each well for incubation for 3 h. OD values are measured on wavelength 490 nm. Cell growth inhibition was calculated based on the […] with subtraction of background reading for only medium containing wells. The growth inhibition was defined as the percentage of the average […] from drug-treated wells over that from control wells without treatment. The experiment was done in triplicates. IC50 values were calculated using GraphPad PRISM software (GraphPad Software, Inc., La Jolla, CA, USA).

[21] = 150 mg/m2, 30-minute IV infusion, ref phase 1 study currently underway
[22] = 300 mg/m2, 30-minute IV infusion, ref phase 1 study currently underway
[23] = 600 mg/m2, 30-minute IV infusion, ref phase 1 study currently underway
[24] = 900 mg/m2, 30-minute IV infusion, ref phase 1 study currently underway
[25] = 1200 mg/m2, 30-minute IV infusion, ref phase 1 study currently underway

Which systemic effects [1] does the source give for `O=C(/C=C/c1cccc(S(=O)(=O)Nc2ccccc2)c1)NO` [Belinostat, N-hydroxy-3-(phenylsulphamoylphenyl) acrylamide] here?
The systemic effects was “mild”.

What about the “Approximate Solubility” value ([2]; 1,2-propanediol) of the same compound?
Its value is ~ 0.2 mg/mL.

What about the “Approximate Solubility” value ([2]; ethanol) of the same compound?
Its value is greater than 200 mg/mL.

And the “Approximate Solubility” value ([2]; polyethylene glycol 400)?
The value was ~ 1.5 mg/mL.

What about the mean plasma concentration ([3]; after 0.5 hour) of the same compound?
The mean plasma concentration was 3300 ± 700 nM.

What about the mean plasma concentration ([3]; by 2 hours) of the same compound?
The mean plasma concentration was 42 ± 2 nM.

What about the CYP1A2 induction [4] of the same compound?
Its CYP1A2 induction is “moderate inducer”.

What about the CYP2C9 inhibition [5] of the same compound?
The CYP2C9 inhibition was “weak to moderate inhibitor”.

What about the “systemic and local irritation adverse events (lymphopenia, lymphoid atrophy, injection site reactions)” value ([6]; 50 mg/kg/day, arginine formulation) of the same compound?
Its value is “mild and fully reversible”.

And the “no-observable-effect-level (NOEL)” value ([6]; one study)?
Its value is 10 mg/kg/day.

What about the Cmax [7, 21] of the same compound?
The Cmax was 6565 ± 2158 ng/mL.

And the t1/2 [7, 21]?
The t1/2 was 46.6 ± 8.7 min.

What about the Cmax [7, 22] of the same compound?
The Cmax was 15505 ± 6245 ng/mL.

And the t1/2 [7, 22]?
The t1/2 was 44.6 ± 8.0 min.

What about the Cmax [7, 23] of the same compound?
The Cmax was 31177 ± 8968 ng/mL.

What about the t1/2 [7, 23] of the same compound?
The t1/2 was 43.4 ± 6.7 min.

And the “dose limiting toxicity (DLT)” value ([7]; 600 mg/m2/d, six patients, ref on-going phase 1)?
The value was “DLT of severe fatigue”.

What about the Cmax [7, 24] of the same compound?
The Cmax was 53779 ± 6381 ng/mL.

What about the t1/2 [7, 24] of the same compound?
Its t1/2 is 54.2 ± 8.7 min.

What about the Cmax [7, 25] of the same compound?
Its Cmax is 52362 ± 12724 ng/mL.

What about the t1/2 [7, 25] of the same compound?
The t1/2 was 85.5 ± 19.6 min.

And the tolerability ([7]; doses ranging from 150 – 1200 mg/m2, ref phase 1 study currently underway)?
The tolerability was “generally been well tolerated”.

What about the CYP2C8 inhibition [8] of the same compound?
The CYP2C8 inhibition was “weak to moderate inhibitor”.

And the “metabolism by UGT isoform” value [9]?
Its value is “less than 3%”.

What about the “metabolism by UGT isoform” value [10] of the same compound?
The value was “less than 3%”.

What about the “metabolism by UGT isoform” value [11] of the same compound?
Its value is “less than 3%”.

And the “metabolism by UGT isoform” value [12]?
Its value is “less than 3%”.

What about the “metabolism by UGT isoform” value [13] of the same compound?
The value was “no metabolism was observed”.

And the “metabolism by UGT isoform” value [14]?
The value was “no metabolism was observed”.

What about the “metabolism by UGT isoform” value [15] of the same compound?
Its value is “no metabolism was observed”.

And the “metabolism by UGT isoform” value [16]?
The value was “no metabolism was observed”.

And the “metabolism by UGT isoform” value [17]?
Its value is “no metabolism was observed”.

What about the “metabolism by UGT isoform” value [18] of the same compound?
The value was “no metabolism was observed”.

What about the “metabolism by UGT isoform” value [19] of the same compound?
Its value is “no metabolism was observed”.

And the IC50 [20]?
Its IC50 is 6.4 µM.

— paper PMC3559838 (PLoS ONE, 2013)
